The results in this text go back to patent US20080019913A1 (UNIVERSITY OF ARIZONA OFFICE OF TECHNOLOGY TRANSFER, published 2008).

One assay deals with adult male ICR mice. In words: 55° C. warm water tail-flick test (antinociception). The class given is in vivo, mouse. The settings on record: for A50 i.c.v. / A50 i.v.: mouse 55° C. tail-flick, time of peak effect; for A50 i.c.v.: i.c.v. administration; for A50 i.v.: i.v. administration. As for the experimental part: All in vivo studies used adult male ICR mice (25-30 g; Harlan Industries, Cleveland, Ohio, USA) that were maintained on a 12 h light/dark cycle (lights on at 07:00 hours) in a temperature and humidity-controlled animal colony. All testing was carried out between 10:00 and 15:00 hours. Studies were carried out in accordance with the Guide for the Care and Use of Laboratory Animals as adopted and promulgated by the National Institutes of Health.
For intracerebroventricular (i.c.v.) injections, mice were lightly anesthetized with ether and an incision was made in the scalp. Injections were performed using a 10 μL Hamilton microsyringe (Hamilton Company, Reno, Nev., USA) at a point 2 mm caudal and 2 mm lateral from bregma. Compounds were injected at a depth of 3 mm in a volume of 5 μL. Intravenous (i.v.) injections were performed by restraining the mouse in a Plexiglas holder, dipping the tail for 10 seconds in 40° C. warm water to dilate the tail vein, and subsequent injection into the vein with a 30-gauge needle. All compounds were dissolved in distilled water (i.c.v. injections) or physiologic saline (i.v. injections).
Antinociception was assessed using the 55° C. warm water tail-flick test. The latency to the first sign of a rapid tail-flick was taken as the behavioral end-point. Each mouse was first tested for baseline latency by immersing its tail in the water and recording the time to response. Mice not responding within 5 seconds were excluded from further testing (average latency=2.1 seconds). Mice were then administered the test compound and tested for antinociception at 10, 20, 30, 45, 60, 90, 120 and 180 min postinjection. A maximum score was assigned (100%) to animals not responding within 10 seconds. Antinociception was calculated by the following formula: % antinociception=100·(test latency ) control latency)/(10 ) control latency). Dose-response lines were constructed at times of peak agonist effect, and analyzed by linear regression using […] software (17). All A50 values (95% confidence limits) shown were calculated from the linear portion of the dose-response curve. A minimum of three doses/curve and 8-10 mice were used at each dose level.
(In general: In hot-plate and tail-flick tests a longer latency is read as antinociception.)

Assay [1] concerns the target T1, human μ-opioid receptor (MOR) (Homo sapiens, UniProt P35372).
T1 construct: expressed in transfected cells; host or cells: Chinese hamster ovary (CHO) cells
In words: biochemical. The class given is binding.

The target of assay [2] is T2, human Δ-opioid receptor (DOR) (Homo sapiens, UniProt P41143).
T2 construct: expressed in transfected cells; host or cells: Chinese hamster ovary (CHO) cells
As to the kind of experiment: biochemical. Type of assay: binding.

The target in assay [3] is human δ-opioid receptor (human) (UniProt P41143). In words: ratio of Ki values from radioligand competition, reference MOR. (In general: Displacement assays read how much labelled ligand stays bound in the presence of the test substance.)
For assay [4] the target is unchanged. In words: radioligand competition against [3H]naltrindole, CHO cell membranes expressing human DOR.
Assay [5] addresses T3, human κ-opioid receptor (human, UniProt P41145 1-380).
T3 construct: whole, on cells; Assayed as membranes of CHO cells expressing the receptor; also called KOR
As to the kind of experiment: ratio of Ki values from radioligand competition, reference MOR. As for the experimental part: (§1) Binding was determined in Chinese hamster ovary (CHO) cell membranes expressing either the human μ-, Δ-, or κ-opioid receptors (MOR, DOR, and KOR). Cells were incubated with 12 concentrations of glycopeptide and the indicated radiolabeled ligand (Table 1, below). Non-specific binding was measured by inclusion of 10 μM naloxone. Data are the mean Kᵢ values±SEM from three experiments performed in triplicate.

Assay [6] concerns the target T3, human κ-opioid receptor. As to the kind of experiment: radioligand competition against [3H]U69,593, CHO cell membranes expressing human KOR. As for the experimental part:
as §1

The target of another assay is T4, human µ-opioid receptor (human, UniProt P35372 1-400).
T4 construct: whole, on cells; Assayed as membranes of CHO cells expressing the receptor; also called MOR; mu opioid receptor
In words: radioligand competition against [3H]DAMGO, CHO cell membranes expressing human MOR. As for the experimental part:
as §1

Non-standard residues stand in square brackets, D forms with d. Residues, ends and D or L forms follow the SMILES beside them. No end group written: not given here. *: point of attachment. β‑lactoside = OC[C@H]1O[C@@H](O[C@H]2[C@H](O)[C@@H](O)[C@H](*)O[C@@H]2CO)[C@H](O)[C@@H](O)[C@H]1O; X2 = OC[C@H]1O[C@@H](O[C@H]2[C@H](O)[C@@H](O)[C@H](*)O[C@@H]2CO)[C@H](O)[C@@H](O)[C@H]1O; βGlc = OC[C@H]1O[C@@H](*)[C@H](O)[C@@H](O)[C@@H]1O; β‑D‑xyloside = O[C@@H]1[C@@H](O)[C@H](*)OC[C@H]1O; X1 = O[C@@H]1[C@@H](O)[C@H](*)OC[C@H]1O; NMeF = CN[C@@H](Cc1ccccc1)C(=O)O

For orientation: Ki means a dissociation constant, usually derived from enzyme kinetics or from competition with a known ligand. High values mean lower affinity, low ones higher affinity. The molecule `C[C@@H](NC(=O)[C@@H](N)Cc1ccc(O)cc1)C(=O)NCC(=O)N(C)[C@@H](Cc1ccccc1)C(=O)N[C@@H](CO[C@@H]1O[C@H](CO)[C@@H](O)[C@H](O)[C@H]1O)C(N)=O` [Compound 4] (H-Y[dA]G[NMeF]S(βGlc)-NH2; N-terminus assumed) had a duration of action with adult male ICR mice (after i.c.v. administration, tail-flick) of over 180 min. Further, in the assay with adult male ICR mice, the A50 i.c.v. turned out to be 19 pmol per mouse and the A50 i.v. came to 0.72 µmol/kg. Moreover, the inhibition constant (Ki) in assay [1] was determined as 1.3 ± 0.09 nM. The molecule also returned a Ki in assay [2] of over 5000 nM.
“DAMGO [D-Ala^2,Me-Phe^4Gly^5(ol)]enkephalin (peptide)”: the Ratio µ:δ:κ (Ki at δ relative to µ) in assay [3] was determined as 1900. Besides, the Ki in assay [4] turned out to be 990 nM.
For `C[C@@H](NC(=O)[C@@H](N)Cc1ccc(O)cc1)C(=O)NCC(=O)N(C)[C@@H](Cc1ccccc1)C(=O)NCCO` [DAMGO 1, [D-Ala^2,Me-Phe^4Gly^5(ol)]enkephalin, reference compound], in the assay with adult male ICR mice, the A50 i.c.v. is reported as 30 pmol per mouse and the A50 i.v. is 1.88 µmol/kg.
The molecule `CN1CC[C@]23c4c5ccc(O)c4O[C@H]2[C@@H](O)C=C[C@H]3[C@H]1C5` [Morphine, reference compound] came in with an A50 i.v. with adult male ICR mice of 7.84 µmol/kg.
In the assay with adult male ICR mice, `C[C@@H](NC(=O)[C@@H](N)Cc1ccc(O)cc1)C(=O)NCC(=O)N(C)[C@@H](Cc1ccccc1)C(=O)N[C@@H](CO[C@@H]1OC[C@@H](O)[C@H](O)[C@H]1O)C(N)=O` [Compound 3] (H-Y[dA]G[NMeF]S(X1)-NH2; N-terminus assumed) gave an A50 i.c.v. of 2.0 pmol per mouse and an A50 i.v. of 0.27 µmol/kg. The same molecule showed an inhibitory constant (Ki) in assay [1] of 1.3 ± 0.16 nM. This molecule also yielded an inhibition constant Ki in assay [2] of 730 ± 66 nM.
As for `C[C@@H](NC(=O)[C@@H](N)Cc1ccc(O)cc1)C(=O)NCC(=O)N(C)[C@@H](Cc1ccccc1)C(=O)N[C@@H](CO[C@@H]1O[C@H](CO)[C@@H](O[C@@H]2O[C@H](CO)[C@H](O)[C@H](O)[C@H]2O)[C@H](O)[C@H]1O)C(N)=O` [Compound 5] (H-Y[dA]G[NMeF]S(X2)-NH2; N-terminus assumed), in the assay on adult male ICR mice, the A50 i.c.v. is 2.0 pmol per mouse and the A50 i.v. was 1.15 µmol/kg. The molecule further came in with a Ki in assay [2] of 1600 ± 129 nM.
Regarding `C[C@@H](NC(=O)[C@@H](N)Cc1ccc(O)cc1)C(=O)NCC(=O)N(C)[C@@H](Cc1ccccc1)C(=O)N[C@@H](CO)C(N)=O` [Compound 2] (HELM PEPTIDE1{Y.[dA].G.[meF].S.[am]}$$$$V2.0; N-terminus assumed), in the assay with adult male ICR mice, the A50 i.c.v. was 2.0 pmol per mouse and the A50 i.v. was 0.20 µmol/kg. This molecule also showed a Ki in assay [2] of 600 ± 44 nM.

B1: DAMGO analog compound (5), C-terminal L-serine amide beta-lactoside (peptide)
peptide: Y[dA]G[NMeF]S(β‑lactoside)-NH2
modifications: N-terminus assumed
SMILES: C[C@@H](NC(=O)[C@@H](N)Cc1ccc(O)cc1)C(=O)NCC(=O)N(C)[C@@H](Cc1ccccc1)C(=O)N[C@@H](CO[C@@H]1O[C@H](CO)[C@@H](O[C@@H]2O[C@H](CO)[C@H](O)[C@H](O)[C@H]2O)[C@H](O)[C@H]1O)C(N)=O
notes: Glycopeptide; also called glycopeptide 5
In the case of B1, the Ratio µ:δ:κ (Ki at δ relative to µ) in assay [3] amounted to 2400. The “Ratio µ:δ:κ (Ki at κ relative to µ)” value with human κ-opioid receptor [5] came out at 530. Besides, the values for the Ki in the assay with human κ-opioid receptor [6] and with human µ-opioid receptor were 350 nM and 0.66 nM, respectively.

B2: DAMGO analog compound (2), C-terminal L-serine amide (peptide)
peptide: YAGFS
HELM: PEPTIDE1{Y.[dA].G.[meF].S.[am]}$$$$V2.0; N-terminus assumed
SMILES: C[C@@H](NC(=O)[C@@H](N)Cc1ccc(O)cc1)C(=O)NCC(=O)N(C)[C@@H](Cc1ccccc1)C(=O)N[C@@H](CO)C(N)=O
notes: Made by Fmoc synthesis on Rink amide resin; also called peptide 2
B2: the Ratio µ:δ:κ (Ki at δ relative to µ) in assay [3] stood at 880. Besides, in the assay with human κ-opioid receptor [5], the “Ratio µ:δ:κ (Ki at κ relative to µ)” value amounted to 280. The Ki with human κ-opioid receptor [6] came to 190 nM; with human µ-opioid receptor it was 0.68 nM.

B3: DAMGO analog compound (3), C-terminal L-serine amide beta-D-xyloside (peptide)
peptide: Y[dA]G[NMeF]S(β‑D‑xyloside)-NH2
modifications: N-terminus assumed
SMILES: C[C@@H](NC(=O)[C@@H](N)Cc1ccc(O)cc1)C(=O)NCC(=O)N(C)[C@@H](Cc1ccccc1)C(=O)N[C@@H](CO[C@@H]1OC[C@@H](O)[C@H](O)[C@H]1O)C(N)=O
notes: Glycopeptide; also called glycopeptide 3
Regarding B3, in assay [3], the Ratio µ:δ:κ (Ki at δ relative to µ) turned out to be 560. The “Ratio µ:δ:κ (Ki at κ relative to µ)” value with human κ-opioid receptor [5] amounted to 120. This molecule displayed a Ki in the assay with human κ-opioid receptor [6] of 160 nM.

B4: DAMGO analog compound (4), C-terminal L-serine amide beta-D-glucoside (peptide)
peptide: Y[dA]G[NMeF]S(βGlc)-NH2
modifications: N-terminus assumed
SMILES: C[C@@H](NC(=O)[C@@H](N)Cc1ccc(O)cc1)C(=O)NCC(=O)N(C)[C@@H](Cc1ccccc1)C(=O)N[C@@H](CO[C@@H]1O[C@H](CO)[C@@H](O)[C@H](O)[C@H]1O)C(N)=O
notes: Glycopeptide; also called glycopeptide 4
Turning to B4, in assay [3], the Ratio µ:δ:κ (Ki at δ relative to µ) amounted to 3800. In the assay with human κ-opioid receptor [5], the “Ratio µ:δ:κ (Ki at κ relative to µ)” value is 130. Besides, the inhibitory constant (Ki) with human κ-opioid receptor [6] came out at 170 nM.
